According to ChEMBL document CHEMBL2073778, “Identification of lactate as a driving force for prostanoid transport by prostaglandin transporter PGT” (Am J Physiol Renal Physiol, 2002):

Target: Solute carrier organic anion transporter family member 2A1 (Homo sapiens, UniProt Q92959)
Assay: TP_TRANSPORTER: inhibition of PGE2 uptake in PGT-expressing HeLa cells
Format: functional, cell-based

Ki [mM]	SMILES
31	O=P(O)(O)OC[C@H]1O[C@@H](O)[C@H](O)[C@@H](O)[C@@H]1O
51	O=P(O)(O)OC[C@H]1O[C@@](O)(COP(=O)(O)O)[C@@H](O)[C@@H]1O [FRUCTOSE 1,6-DIPHOSPHATE]
15	O=C[C@H](O)COP(=O)(O)O
57	O=C(OP(=O)(O)O)C(O)COP(=O)(O)O (configuration not stated)
48	C[C@@H](O)C(=O)O [D-LACTIC ACID]
26	CC(=O)C(=O)O [PYRUVATE]
13	C=C(OP(=O)(O)O)C(=O)O [PHOSPHOENOLPYRUVATE]
